Publication PMC5118696, “Identification of inhibitors that dually target the new permeability pathway and dihydroorotate dehydrogenase in the blood stage of Plasmodium falciparum” (Scientific Reports, 2016)
Where two headings read alike, the source gives them in different places.

Legend:
[1] = tested on: Hyp1-NLuc Plasmodium falciparum-infected erythrocytes (new permeability pathway, NPP); test: microbe, parasite or virus in culture; conditions: Erythrocyte, 0.33 h, read-out: % of control remaining
[2] = tested on: Hyp1-NLuc Plasmodium falciparum-infected erythrocytes (new permeability pathway, NPP); test: microbe, parasite or virus in culture; conditions: Erythrocyte, 0.33 h, read-out: Mean RLU at 28 min (As % of DMSO control)

| SMILES | activity at 2 µM [1] | activity at 2 µM [2] |
| --- | --- | --- |
| c1ccc(-c2ccc(-c3nc4ccccc4[nH]3)cc2)cc1 [MMV665891] | 122% | 109% |
| Cc1ccnc(NC(c2cccc(OCc3ccccc3)c2)c2ccc3cccnc3c2O)c1 (stereo not drawn) [MMV000720] | 108% | 102% |
| COc1cccc(C=Cc2nc(=O)c3ccccc3o2)c1OC [MMV666693] | 29.9% | 75% |
| COc1ccc2c(c1OC)C(=O)N1c3ccccc3N=C(c3ccc(C)cc3)CC21 (stereo not drawn) [MMV000917] | 94.9% | 90.9% |
| COc1ccc(C)c2sc(N(Cc3cccnc3)C(=O)c3ccc(C#N)cc3)nc12 [MMV001241] | 100% | 101% |
| Oc1c2c(nc3ccccc13)CCCC2 [MMV665843] | 111% | 109% |
| Cn1c(=O)n(C)c2cc(CNCCNc3ccnc4cc(Cl)ccc34)ccc21 [MMV665875] | 88.8% | 95.9% |
| CCOC(=O)C1(Cc2ccccc2)CCN(Cc2cccc(OC)c2O)CC1 [MMV666109] | 97.9% | 93.9% |
| CCOc1ccc(N2C(N)=NC(N)=NC2(C)C)cc1 [MMV667486] | 98% | 98.6% |
| COc1ccc2c(c1)OC(O)(C(F)(F)C(F)(F)F)CC2=O (stereo not drawn) [MMV007839] | 93.7% | 104% |
| CCOC(=O)C1=C(C)N=c2sc(=Cc3ccccc3O)c(=O)n2C1c1ccc(OC)c2ccccc12 (stereo not drawn) [MMV666604] | 117% | 110% |
| O=C(Nc1ccc(N2CCCCC2)c(Cl)c1)c1ccc(Br)o1 [MMV019700] | 118% | 117% |
| O=c1nc(C=Cc2ccc(Br)cc2)oc2ccccc12 [MMV666599] | 94.3% | 102% |
| COc1ccc(C(=O)C(CCC(CNC(C)(C)C)C(=O)c2ccc(OC)cc2)CNC(C)(C)C)cc1 (stereo not drawn) [MMV007591] | 102% | 103% |
| O=C(NC1CCN(Cc2ccccc2)CC1)c1cc2nc(-c3ccc(Cl)s3)cc(C(F)(F)F)n2n1 [MMV396635] | 101% | 101% |
| CCCCCn1c(=N)n(CC(O)COc2cccc(C)c2)c2ccccc21 (stereo not drawn) [MMV000444] | 99.2% | 95.8% |
| O=C1c2ccc3c4c(ccc(c24)C(=O)N1CCCCO)C(=O)N(CCCCO)C3=O [MMV009085] | 58.9% | 93.1% |
| O=c1cc(NC2CCN(CCCc3ccccc3)CC2)c2cc(Cl)ccc2o1 [MMV665786] | 89.1% | 96.5% |
| CSc1ccccc1C(=O)Nc1nc(-c2ccccn2)cs1 [MMV001246] | 106% | 112% |
| Cc1cc(Nc2ccc(Cl)cc2)n2nc(C(F)(F)F)nc2n1 [MMV011256] | 109% | 111% |
| CN(C)c1ccc(C(O)(c2ccc(N(C)C)cc2)c2ccc(N(C)C)cc2)cc1 [MMV665941] | 96.5% | 98.3% |
| O=C1C2=C(Nc3ccccc3SC2c2ccccc2)c2ccccc21 (stereo not drawn) [MMV645672] | 106% | 106% |
| CCN(CC)c1cc(C)c2cc(NC(=O)c3cccc(OC)c3)ccc2n1 [MMV000498] | 118% | 107% |

| SMILES | activity at 2 µM [1] | activity at 2 µM [2] |
| --- | --- | --- |
| CN(C)c1ccc(N2C(N)=NC(N)=NC2(C)C)cc1 [MMV667487] | 98.1% | 97% |
| O=C(Nc1ccc(F)c(Cl)c1)Nc1ccc(Cl)c(Cl)c1 [MMV665953] | 125% | 108% |
| CCOC(=O)C1=C(C)N=c2sc(=Cc3cc(Cl)ccc3O)c(=O)n2C1c1ccc(OC)cc1 (stereo not drawn) [MMV665971] | 102% | 101% |
| Oc1ccc(Cl)cc1CNc1nc2ccccc2[nH]1 [MMV665850] | 110% | 105% |
| Cc1ccc2nc(C)cc(Nc3cccc(C(F)(F)F)c3)c2c1 [MMV000326] | 118% | 110% |
| COc1ccc(C2N(C)c3ccccc3N2C)cc1 [MMV666075] | 123% | 109% |
| CN(N=O)C1=C(NC2CCCCC2)C(=O)c2ccccc2C1=O [MMV667492] | 90.8% | 103% |
| Clc1ccc2c(N3CCCC3)ccnc2c1 [MMV007363] | 115% | 114% |
| CCOC(=O)C1=C(c2ccccc2)N=c2sc(=Cc3cc(C)n(-c4ccc(F)cc4)c3C)c(=O)n2C1c1cccc(OC)c1OC (stereo not drawn) [MMV666601] | 103% | 105% |
| COc1ccccc1CNC(=O)C1c2ccccc2C(=O)N(CC(C)C)C1c1cccs1 (stereo not drawn) [MMV000648] | 105% | 108% |
| O=C(NC1CCN(Cc2ccccc2)CC1)c1cc(-c2ccncc2)nc2ccc(Cl)cc12 [MMV020275] | 115% | 115% |
| CCCCc1ccc(NS(=O)(=O)c2cc3c4c(c2)CCN4C(=O)CC3)cc1 [MMV001255] | 89.2% | 100% |
| Oc1ccccc1CNCC12CC3CC(CC(C3)C1)C2 [MMV020788] | 109% | 108% |
| COCCn1c(C)nc2ccccc2c1=O [MMV665904] | 112% | 110% |
| CC(C)OCc1cc(CN2CCN(c3cccc(Cl)c3)CC2)c(O)c2ncccc12 [MMV000788] | 107% | 109% |
| O=C(CCc1ccccc1)c1ccccc1OCC(O)CN1CCCCC1 (stereo not drawn) [MMV009015] | 106% | 107% |
| CC1CC(C)CN(C(=O)c2ccc(Cl)cc2Cl)C1 (stereo not drawn) [MMV001344] | 107% | 106% |
| COc1ccccc1N1CCN(C(CNS(=O)(=O)c2ccc(Cl)cc2)c2cccnc2)CC1 (stereo not drawn) [MMV665914] | 97.5% | 102% |
| COc1cc(-c2nc(-c3ccccc3)c(-c3ccccc3)[nH]2)cc(OC)c1O [MMV020750] | 109% | 102% |
| CN1C=C(c2ccc3ccccc3n2)C(c2c[nH]c3ccccc23)c2ccccc21 (stereo not drawn) [MMV008160] | 86% | 91.7% |
| CN1CCN(c2nc(Nc3ccc(O)cc3)nc3ccccc23)CC1 [MMV000986] | 101% | 102% |
| COc1ccc(CCn2c(=N)c(C(=O)NCc3cccnc3)cc3c(=O)n4cccc(C)c4nc32)cc1 [MMV667488] | 95.6% | 105% |
| CCOc1ccc(C2N(C)c3ccccc3N2C)cc1 [MMV075490] | 116% | 117% |

| SMILES | activity at 2 µM [1] | activity at 2 µM [2] |
| --- | --- | --- |
| O=C(NCc1ccco1)C1CCN(S(=O)(=O)c2ccc(Br)cc2)CC1 [MMV007430] | 112% | 114% |
| CCC(=O)Nc1nnc(Cc2ccc(OC)c(OC)c2)s1 [MMV020942] | 102% | 102% |
| COC(=O)c1ccc(C2C3=C(O)CC(c4ccc(F)cc4)CC3=Nc3ccccc3N2C(=O)c2ccccc2)cc1 (stereo not drawn) [MMV011438] | 89.7% | 92.2% |
| CCOC(=O)c1c(NC(=O)c2ccccc2)sc2c(O)c(CN(CC)CC)ccc12 [MMV665831] | 103% | 103% |
| CC(C)(C)c1ccc2c(c1)CN(Cc1ccc(Cl)cc1)CO2 [MMV000442] | 113% | 109% |
| CC(C)(C)c1ccc(C(=O)Nc2nc3ccccc3s2)cc1 [MMV142383] | 121% | 110% |
| Cc1cccc(N2C(=O)C3C(C2=O)C2(c4ccccc4)C(=O)C3(c3ccccc3)C(c3ccc4c(c3)OCO4)=C2c2ccc3c(c2)OCO3)c1 (stereo not drawn) [MMV007228] | 107% | 99.5% |
| c1ccc2c(NCCc3c[nH]c4ccccc34)c3ccccc3nc2c1 [MMV006513] | 106% | 96.2% |
| COc1cccc(Nc2nc(N)c3ccccc3n2)c1 [MMV019199] | 97.7% | 98.1% |
| CC1(c2ccccc2)Nc2ccccc2-c2nc3ccccc3n21 (stereo not drawn) [MMV396715] | 100% | 102% |
| COc1cccc(C(=O)NC(c2ccc(C)cc2)c2cc(Cl)c3cccnc3c2O)c1 (stereo not drawn) [MMV665969] | 106% | 101% |
| CN1CCN(c2c3c(c(C#N)c4nc5ccccc5n24)CCC3)CC1 [MMV008127] | 111% | 112% |
| Cc1ccc(C2CC(C(F)(F)F)n3nc(C(=O)N4CCN(C(c5ccccc5)c5ccccc5)CC4)cc3N2)cc1 (stereo not drawn) [MMV000699] | 100% | 101% |
| OC1=C2C(=Nc3ccccc3SC2c2ccc(Br)cc2)c2ccccc21 (stereo not drawn) [MMV007127] | 114% | 108% |
| OC(CNC1CCCCC1)Cn1c2ccccc2c2ccccc21 (stereo not drawn) [MMV009063] | 92.9% | 97% |
| Cc1nc2ccccc2c(O)c1CC=C(Cl)Cl [MMV665994] | 101% | 96.6% |
| CC1CCN(Cc2c(O)ccc3cc(-c4nc5ccccc5s4)c(=O)oc23)CC1 [MMV009127] | 105% | 101% |
| O=C1CC(O)(C(F)(F)C(F)(F)F)Oc2ccccc21 (stereo not drawn) [MMV000972] | 82.2% | 90.2% |
| CCOc1ccc(-c2nonc2NC(=O)c2cccc(C)c2)cc1OCC [MMV665805] | 107% | 106% |
| COc1cc(C(=O)ON=C(N)Cc2cccc3ccccc23)cc(OC)c1OC [MMV666687] | 104% | 106% |
| O=C(NC1CCCCC1)C(c1cccs1)N(CCc1ccccc1)C(=O)c1ccco1 (stereo not drawn) [MMV666106] | 105% | 96.6% |
| COc1cccc(Cn2c(Oc3ccccc3)nc3c2c(=O)n(C)c(=O)n3C)c1 [MMV396705] | 101% | 102% |
| Cc1cc(NC(=O)C2c3ccccc3C(=O)N(CC(C)C)C2c2cccs2)no1 (stereo not drawn) [MMV006429] | 98.1% | 99.6% |
